Experimental data as given in patent US20250130225A1, “SUBSTRATES FOR IMAGING GLUCOCEREBROSIDASE ACTIVITY” (SIMON FRASER UNIVERSITY, priority 2021, published 2025).
Blank lines part the entries; values can stand above or below the compound they belong to.

What was measured:
GCase = target: T1, GCase (Homo sapiens, UniProt P04062); test: GCase inhibition by AT3375 in live SK-N-SH cells read with substrate 1; assay type: cell-based; settings: 10 μM AT3375 with 5 μM substrate 1, 2 h
T1 construct: High content imaging of SK-N-SH cells incubated for 2 h; endogenous in cells; host or cells: SK-N-SH
T1 sequence (P04062 40-536): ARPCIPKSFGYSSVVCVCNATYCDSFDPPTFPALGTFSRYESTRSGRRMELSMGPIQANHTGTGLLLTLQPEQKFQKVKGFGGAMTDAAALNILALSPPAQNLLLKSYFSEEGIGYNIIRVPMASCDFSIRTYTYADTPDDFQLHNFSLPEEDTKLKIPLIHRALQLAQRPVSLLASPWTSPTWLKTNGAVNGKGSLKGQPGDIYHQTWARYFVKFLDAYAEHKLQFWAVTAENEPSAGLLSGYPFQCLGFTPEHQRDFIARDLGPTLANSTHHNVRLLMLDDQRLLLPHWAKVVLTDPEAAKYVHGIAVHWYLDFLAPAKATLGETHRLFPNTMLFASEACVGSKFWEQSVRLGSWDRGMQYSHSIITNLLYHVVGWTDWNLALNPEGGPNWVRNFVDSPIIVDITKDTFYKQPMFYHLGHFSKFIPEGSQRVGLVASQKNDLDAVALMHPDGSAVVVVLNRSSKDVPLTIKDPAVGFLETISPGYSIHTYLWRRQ
Experimental: After incubation at 37° C. and 5% CO2 for 2 h, the media was removed and the cells were washed.
After incubation at 37° C. and 5% CO2 for 2 h, the media was removed, and the cells were washed. The plate was then imaged using a Molecular Devices ImageXpress XLS High-Content Imager. From the images, the total mean integrated intensity was measured for the FITC channel and divided by the number of cells within the imaging site as determined by the DAPI staining.

[1] = Fluorescence emission spectrum and quenching efficiency of substrate 1 versus BODIPY FL-acid; assay type: physicochemical
Experimental: Fluorescence emission spectra for substrate 1 and BODIPY® FL-acid: The emission spectra were obtained for substrate 1 and BODIPY® FL-acid in citrate-phosphate buffer (150 mM; pH 5.4) containing 1% DMSO and 0.25% taurodeoxycholate. Data were collected using a Molecular Devices plate reader ([…]). […] The excitation wavelength used was 485 nm and the emission wavelength was 513 nm.
Determination of the quenching efficiencies for substrate 1 using concentration dependent variation in the fluorescence emission of substrate 1 and its corresponding fluorophore BODIPY® FL-acid: The quenching efficiencies were determined by comparing the fluorescence emission standard curves of substrate 1 and comparing it to that of BODIPY® Fl-acid.

[2] = target: T2, purified recombinant GCase (Homo sapiens, UniProt P04062); test: In-vitro kinetic assay with purified recombinant GCase; assay type: biochemical; settings: same kinetic assay, substrate 3 vs 9b
T2 construct: purchased R&D Systems
T2 sequence (P04062 40-536): T1 sequence (P04062 40-536)
Experimental: (§1) In-vitro kinetic assay for substrate 1. Continuous assays were performed at 30° C. in citrate-phosphate buffer (150 mM; pH 5.4) containing 0.25% taurodeoxycholate. The concentrations of substrate 1 used in assays were 0.39, 0.78, 1.56, 3.13 6.25, 12.5, 25 and 50 μM. Reactions were initiated by the addition of purified recombinant GCase (2.5 nM, R&D Systems) and the reaction was monitored continuously over 1200 seconds to determine the initial rate of change of fluorescence. Standard curves were constructed using BODIPY® Fl-acid using the same buffer conditions. […] Assays were carried out in triplicate.
as §1, with “Comparative In-vitro” for “In-vitro”, “substrate 3 and 9b.” for “substrate 1.”, “of substrates 3 and 9b” for “of substrate 1”, “were 0.156, 0.313, 0.625, 1.25, 2.5, 5, 10,” for “were 0.39, 0.78, 1.56, 3.13 6.25, 12.5, 25”, “and 20” for “and 50”, “using TAMRA and BODIPY-576” for “using BODIPY® Fl-acid”

Structure (SMILES): O[C@H]1[C@H](O)CNC[C@@H]1C(F)F [AT3375, (3R,4R,5S)-5-(difluoromethyl)piperidine-3,4-diol]
- effect on fluorescent signal from substrate 1 (GCase): significant reduction of the punctuated fluorescent signal

- fluorescence emission of intact substrate compared to free fluorophore BODIPY FL-acid ([1]; 6.25 μM, citrate-phosphate buffer 150 mM, pH 5.4, excitation 485 nm, emission 513 nm): strikingly little fluorescence
- quenching efficiency ([1]; fluorescence emission standard curves compared to BODIPY Fl-acid): greater than 99.7%
Structure (SMILES): COc1cc(/N=N/c2ccc(C)cc2[N+](=O)[O-])c(C)cc1/N=N/c1ccc(N(C)CCCC(=O)NCCCO[C@@H]2O[C@H](COCc3cn(CCCNC(=O)[C@H](CCCCN(C)C)NC(=O)CCC4=[N+]5C(=Cc6c(C)cc(C)n6[B-]5(F)F)C=C4)nn3)[C@@H](O)[C@H](O)[C@H]2O)cc1 [substrate 1, (S)-2-(3-(5,5-difluoro-7,9-dimethyl-dipyrrolo[1,2-c:2′,1′-f][1,3,2]diazaborinin-4-ium-5-uid-3-yl)propanamido)-6-(dimethylamino)-N-(3-(4-((((2R,3S,4S,5R,6R)-3,4,5-trihydroxy-6-(3-(4-((4-((E)-(2-methoxy-5-methyl-4-((E)-(4-methyl-2-nitrophenyl)diazenyl)phenyl)diazenyl)phenyl)(methyl)amino)butanamido)propoxy)tetrahydro-2H-pyran-2-yl)methoxy)methyl)-1H-1,2,3-triazol-1-yl)propyl)hexanamide]

- second order rate constant relative to 9b [2]: more than 5 fold
Structure (SMILES): COc1cc(/N=N/c2ccc([N+](=O)[O-])cc2)c(OC)cc1/N=N/c1ccc(N(C)CCCC(=O)NCCc2ccc(O[C@@H]3O[C@H](COCCCCn4cc(CNC(=O)[C@H](CCCCN(C)C)NC(=O)c5ccc(-c6c7ccc(=[N+](C)C)cc-7oc7cc(N(C)C)ccc67)c(C(=O)O)c5)nn4)[C@@H](O)[C@H](O)[C@H]3O)cc2)cc1 [substrate 3, 5-(((S)-1-(((1-(4-(((2R,3S,4S,5R,6S)-6-(4-(2-(4-((4-((E)-(2,5-dimethoxy-4-((E)-(4-nitrophenyl)diazenyl)phenyl)diazenyl)phenyl)(methyl)amino)butanamido)ethyl)phenoxy)-3,4,5-trihydroxytetrahydro-2H-pyran-2-yl)methoxy)butyl)-1H-1,2,3-triazol-4-yl)methyl)amino)-6-(dimethylamino)-1-oxohexan-2-yl)carbamoyl)-2-(6-(dimethylamino)-3-(dimethyliminio)-3H-xanthen-9-yl)benzoate]
